One assay concerns Ras Initiative (RI) KRAS G12C cells. As to the kind of experiment: phospho-ERK HTRF assay in RI KRAS G12C cells. Conditions: 11-point dose response starting at 2,500 nM, 4 hours or 16 hours treatment, read-out: pERK (RI). It is filed as cell-based. How it is done: KRAS G12C mutant lines, NCI H358 (ATCC, CRL-5807), and Ras Initiative (RI) KRAS G12C were cultured according to published protocols and maintained at 37° C. in 5% CO2. The phospho-ERK HTRF assay was executed following provider's protocol (CisBio #64AERPEH). NCI-H358 or RI KRAS G12C cells were plated at a density of 50,000 cells per well in a 96-well plate (Corning #3903) in respective medias (for NCI-H358, RPMI+10% FBS+1% Pen/Strep, and for RI KRAS G12C, DMEM+10% FBS+1% Pen/Strep+4 μg/mL Blasticidin) and maintained at 37° C. in 5% CO2. Cells were allowed to adhere overnight and treated the following day with a Tecan D300e Digital Dispenser (Tecan Group Ltd., Switzerland) using an 11-point dose response starting at 2,500 nM of exemplified compounds followed by sequential 1:3 dilutions for either 4 hours or 16 hours. Following compound treatment, the cells were washed once with ice-cold PBS. Cells were lysed by adding 50 μL of lysis buffer (1×) supplemented with 1× Pierce Halt Protease and Phosphatase inhibitor and incubated for 30 minutes at 4° C. with shaking. After lysis, 16 μL of cell lysate from the 96-well cell-culture plate was transferred to a 384-well plate (Perkin Elmer #6007290). The premixed antibody solution was prepared by mixing (vol/vol) advanced phospho-ERK1/2 d2 antibody and advanced phospho-ERK1/2 Eu Cryptate antibody. The premixed antibody solution (4 μL) was added to the detection plate containing cell lysate. The detection plate was incubated overnight at 4° C., the HTRF signal was read the next day by using either a Spectramax M5 or Spectramax i3 microplate reader (Molecular Devices, San Jose, CA, USA), and data was processed according to manufacturer's protocol.
Examples were evaluated according to the above p-ERK assay
On the technique in general: Time-resolved FRET reads energy transfer from a long-lived donor to a nearby acceptor.
Take `C=CC(=O)N1[C@H](C)CN(c2nc(=O)n3c4c(c(-c5ccc(F)c6[nH]c(=O)[nH]c56)c(C(F)(F)F)cc24)SC[C@@H](OC)C3)C[C@@H]1C` [Example 1, (3S)-8-((3S,5R)-4-acryloyl-3,5-dimethylpiperazin-1-yl)-11-(7-fluoro-2-oxo-2,3-dihydro-1H-benzo[d]imidazol-4-yl)-3-methoxy-10-(trifluoromethyl)-3,4-dihydro-2H,6H-[1,4]thiazepino[2,3,4-ij]quinazolin-6-one]: the IC50 is over 2500 nM.
Turning to `C=CC(=O)N1CCN(c2nc(=O)n3c4c(c(-c5ccc(F)c6[nH]c(=O)[nH]c56)c(C(F)(F)F)cc24)SCC2(CCC2)C3)CC1` [Example 5, 8′-(4-acryloylpiperazin-1-yl)-11′-(7-fluoro-2-oxo-2,3-dihydro-1H-benzo[d]imidazol-4-yl)-10′-(trifluoromethyl)-2′H,4′H,6′H-spiro[cyclobutane-1,3′-[1,4]thiazepino[2,3,4-ij]quinazolin]-6′-one], the IC50 was over 2500 nM.
Same read-out and setting: the value for `C=CC(=O)N1[C@H](C)CN(c2nc(=O)n3c4c(c(-c5ccc(F)c6sc(=O)[nH]c56)c(C(F)(F)F)cc24)SC[C@@H]3COC)C[C@@H]1C` [Example 6, (3S,10S)-7-((3S,5R)-4-acryloyl-3,5-dimethylpiperazin-1-yl)-10-(7-fluoro-2-oxo-2,3-dihydrobenzo[d]thiazol-4-yl)-3-(methoxymethyl)-9-(trifluoromethyl)-2,3-dihydro-5H-[1,4]thiazino[2,3,4-ij]quinazolin-5-one] was 68 nM.
Still for that read-out and setting: with `C=CC(=O)N1[C@H](C)CN(c2nc(=O)n3c4c(c(-c5ccc(F)c6sc(=O)[nH]c56)c(C(F)(F)F)cc24)SCC2(CCC2)C3)C[C@@H]1C` [Example 8, 8′-((3S,5R)-4-acryloyl-3,5-dimethylpiperazin-1-yl)-11′-(7-fluoro-2-oxo-2,3-dihydrobenzo[d]thiazol-4-yl)-10′-(trifluoromethyl)-2′H,4′H,6′H-spiro[cyclobutane-1,3′-[1,4]thiazepino[2,3,4-ij]quinazolin]-6′-one] the figure was 171 nM; with `C=CC(=O)N1CCN(c2nc(=O)n3c4c(c(-c5ccc(F)c6[nH]c(=O)[nH]c56)c(C(F)(F)F)cc24)SC[C@@H]3COC)CC1` [Example 3, (3S,10S)-7-(4-acryloylpiperazin-1-yl)-10-(7-fluoro-2-oxo-2,3-dihydro-1H-benzo[d]imidazol-4-yl)-3-(methoxymethyl)-9-(trifluoromethyl)-2,3-dihydro-5H-[1,4]thiazino[2,3,4-ij]quinazolin-5-one], over 2500 nM.
The same measure, in the same setting: the value for `C=CC(=O)N1[C@H](C)CN(c2nc(=O)n3c4c(c(-c5ccc(F)c6[nH]c(=O)[nH]c56)c(C(F)(F)F)cc24)SCC2(CCC2)C3)C[C@@H]1C` [Example 4, 8′-((3S,5R)-4-acryloyl-3,5-dimethylpiperazin-1-yl)-11′-(7-fluoro-2-oxo-2,3-dihydro-1H-benzo[d]imidazol-4-yl)-10′-(trifluoromethyl)-2′H, 4′H,6′H-spiro[cyclobutane-1,3′-[1,4]thiazepino[2,3,4-ij]quinazolin]-6′-one] was over 2500 nM; that for `C=CC(=O)N1CCN(c2nc(=O)n3c4c(c(-c5ccc(F)c6sc(=O)[nH]c56)c(C(F)(F)F)cc24)SCC2(CCC2)C3)CC1` [Example 9, 8′-(4-acryloylpiperazin-1-yl)-11′-(7-fluoro-2-oxo-2,3-dihydrobenzo[d]thiazol-4-yl)-10′-(trifluoromethyl)-2′H,4′H,6′H-spiro[cyclobutane-1,3′-[1,4]thiazepino[2,3,4-ij]quinazolin]-6′-one] was 222 nM; that for `C=CC(=O)N1[C@H](C)CN(c2nc(=O)n3c4c(c(-c5ccc(F)c6sc(=O)n(C)c56)c(C(F)(F)F)cc24)SC[C@@H]3COC)C[C@@H]1C` [Example 10, (3S)-7-((3S,5R)-4-acryloyl-3,5-dimethylpiperazin-1-yl)-10-(7-fluoro-3-methyl-2-oxo-2,3-dihydrobenzo[d]thiazol-4-yl)-3-(methoxymethyl)-9-(trifluoromethyl)-2,3-dihydro-5H-[1,4]thiazino[2,3,4-ij]quinazolin-5-one] was 46 nM.
In the case of `C=CC(=O)N1[C@H](C)CN(c2nc(=O)n3c4c(c(-c5ccc(F)c6[nH]c(=O)[nH]c56)c(C(F)(F)F)cc24)SC[C@@H]3COC)C[C@@H]1C` [Example 2, (3S,10S)-7-((3S,5R)-4-acryloyl-3,5-dimethylpiperazin-1-yl)-10-(7-fluoro-2-oxo-2,3-dihydro-1H-benzo[d]imidazol-4-yl)-3-(methoxymethyl)-9-(trifluoromethyl)-2,3-dihydro-5H-[1,4]thiazino[2,3,4-ij]quinazolin-5-one], the IC50 was over 2500 nM.
`C=CC(=O)N1CCN(c2nc(=O)n3c4c(c(-c5ccc(F)c6sc(=O)[nH]c56)c(C(F)(F)F)cc24)SC[C@@H]3COC)CC1` [Example 7, (3S,10S)-7-(4-acryloylpiperazin-1-yl)-10-(7-fluoro-2-oxo-2,3-dihydrobenzo[d]thiazol-4-yl)-3-(methoxymethyl)-9-(trifluoromethyl)-2,3-dihydro-5H-[1,4]thiazino[2,3,4-ij]quinazolin-5-one]: the IC50 was 18 nM.

The target in another assay is T1, KRAS 4B G12C protein (Homo sapiens, UniProt P01116, G12C).
T1 construct: made in house; host or cells: E. coli BL21
As to the kind of experiment: KRAS G12C covalent adduct formation (CAF) assay, LC-MS. Type of assay: binding. Conditions: 10 μM compound, 5 μM protein, 22° C. How it is done:
This Example provides a protocol for assessing covalent adduct formation (CAF) between the compounds of Formula (I) and KRAS.
In vitro covalent adduct formation assay: Covalent adduct formation (CAF) reactions between Cys12 of the KRAS 4B G12C protein and the compounds disclosed herein were measured in vitro using liquid chromatography-mass spectrometry (LC-MS).
Recombinant Human KRAS 4B protein containing the G12C mutation was used in compound screening experiments. This protein contained 188 amino acids in total, including an N-terminal 6-Histidine tag, followed by a Tobacco Etch Virus (TEV) tag, followed by residues 1-169 of the native KRAS 4B sequence. The exact mass of the protein is 21,310 Da as determined by mass spectrometry. […]
The recombinant protein is expressed in E. coli BL21 cells and purified using affinity chromatography via a Ni-NTA column. […] The intact mass of the protein samples was measured by LC-MS using a QExactive+ mass spectrometer (Thermo Scientific). An amount of 500 ng total protein was injected onto a C8 reverse phase column, eluted with a seven-minute gradient of 30%-90% acetonitrile/0.1% formic acid, and analyzed for intact mass by the mass spectrometer. Adducts identified were confirmed to be within 1 Dalton of the expected mass, and the relative ratios of free:adduct protein were used to quantify the percentage of protein bound by the compound. […]
As for `C=CC(=O)N1[C@H](C)CN(c2nc(=O)n3c4c(c(-c5ccc(F)c6[nH]c(=O)[nH]c56)c(C(F)(F)F)cc24)SC[C@@H](OC)C3)C[C@@H]1C` [Example 1, (3S)-8-((3S,5R)-4-acryloyl-3,5-dimethylpiperazin-1-yl)-11-(7-fluoro-2-oxo-2,3-dihydro-1H-benzo[d]imidazol-4-yl)-3-methoxy-10-(trifluoromethyl)-3,4-dihydro-2H,6H-[1,4]thiazepino[2,3,4-ij]quinazolin-6-one], the “% CAF @ 60 min” value was 75%.

For the origin of these results see patent US20240383921A1, “AMIDE AND UREA-CONTAINING TRICYCLIC KRAS INHIBITORS” (Erasca, Inc., priority 2021, published 2024).
